Reference: US6287813A, “Antibiotic-based gene regulation system” (Cistronics Cell Technology GmbH, priority 1999, dated 2001)

Columns and labels:
[1] = molecular target: T1, TET-responsive system (tTA/PhCMV*-1) (Escherichia coli, UniProt P04483); test: SEAP reporter assay, CHO-TWIN clones transfected with pMF111 (PhCMV*-1-SEAP); type: cell-based; settings: CHO-TWIN1108 + pMF111; for SEAP Production (%): crossregulation
T1 construct: expressed in transfected cells; host or cells: CHO-K1 clones CHO-TWIN195 and CHO-TWIN1108 (pTWIN1)
T1 sequence (P04483 whole entry, added parts left off): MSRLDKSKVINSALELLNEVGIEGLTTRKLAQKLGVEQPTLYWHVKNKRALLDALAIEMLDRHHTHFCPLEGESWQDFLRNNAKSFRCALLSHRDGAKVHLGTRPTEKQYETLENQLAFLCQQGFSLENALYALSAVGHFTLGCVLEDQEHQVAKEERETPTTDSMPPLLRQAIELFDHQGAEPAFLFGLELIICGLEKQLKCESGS
From the text: pTWIN contains both PIT and tTA in a PSV40 -driven dicistronic configuration. For construction of pTWIN, PIT was first transferred from pMF156 as an EcoRI/HindIII fragment to the corresponding sites of pSBC-1 (EcoRI/HindIII; resulting in pMF167) before the PIT expression unit could be fused to the tTA expression unit contained on pSBC2-tTA (Fussenegger et al., 1997, supra) via SspI/NotI sites. Thus, pTWIN contains the dicistronic PSV40 -PIT-IRES-tTA-pA expression cassette.
Chinese hamster ovary cells (CHO-K1, ATCC: CCL 61), Baby hamster kidney cells (BHK-21, ATCC: CRL-8544), and HeLa cells (ATCC: CRL-7923) as well as stable cell lines CHO-PIT1, CHO-PIT2, CHO-TWIN195, CHO-TWIN1108 and CHO-PIT1-SEAP were cultured as described before (Fussenegger et al., 1998, Nat. Biotechnol. 16,468-472) in the presence of appropriate antibiotics: G418 400 μg/ml; zeocin 100 μg/ml. Optimized CaPO4 protocols were used for high efficiency transient transfection of all cell lines (id). Transient transfected cells were routinely analyzed after 48 h for GFP or SEAP expression using fluorescence microscopy and p-nitrophenolphosphate-based light absorbance timecourse, respectively, as described before (Fussenegger et al., 1998, Nat. Biotechnol. 16, 468-472; Berger et al., 1988, Gene 66, 1-10 b). For construction of stable CHO-PIT and CHO-TWIN cell lines, CHO-K1 was cotransfected either with pMF156 or pTWIN1 and pSV2neo carrying the G418 resistance gene. CHO-PIT1-SEAP was constructed by cotransfection of pMF172 and pZeoSV2 (Invitrogen). For assessment of dose-response characteristics of PPIR -regulated gene expression, CHO-PIT1-SEAP were cultured at cell densities of 150,000/ml for 48 at various PI concentrations. The mixed populations were cloned using FACS-mediated single-cell-sorting (FACStar^Plus; Beckton Dickinson). Gel retardation assay were performed as described (Salah-Bey et al., 1995, supra) using Pip purified from an overproducing strain of E. coli. Pip (0.02 pmol) was titrated with a range of antibiotic concentrations in a reaction volume of 20 μl. Protein solutions were pre-incubated at room temperature for 15 min. in the absence or presence of PI or its derivative quinupristin in a buffer containing 10 mM Tris (pH 7.8), 10 mM MgCl2, 300 mM NaCl, 2 mM DTT and 10% glycerol. An EcoRI-HindII PPTR fragment (0.02 pmol) containing three Pip binding sites (radiolabelled using α-^32 P)dATP was added and incubated for 15 min. To minimize nonspecific protein binding and increase protein stability, 2 μg of poly dIdC and 20 μg BSA were included in the incubation mix. Protein-DNA complexes were separated on 5% polyacrylamide,TBE gels and visualized by autoradiography.
CHO-TWIN195 and CHO-TWIN1108 were transfected under identical conditions with the isogenic plasmids containing the SEAP gene under control of the tTA-activated promoter PhCMV*-1 (pMF111) or the PIT-activated promoter PPIR (pMF172). Transfected cells were grown for 48 h in the presence or absence of either antibiotic prior to assay of SEAP activity.
Table 6: Comparison of the regulation performance of streptogramin- (PI and virginiamycin; VIR) and tetracycline-based gene regulation systems. The two cell clones CHO-TWIN195 and CHO-TWIN1108 containing both pristinamycin- and tetracycline-dependent transactivators were transfected with either the streptogramin-responsive or the TET-responsive SEAP reporter plasmids pMF172 (PPIR -SEAP) and pMF111 (PhCMV*-1 -SEAP), respectively, and the relative SEAP production was assessed. SEAP production values are normalized by SEAP activities under the antibiotic-free, active promoter conditions as follows: pMF172 in CHO-TWIN195:1.7 mU/ml; in CHO-TWIN1108 : 1.8 mU/ml. pMF111 in CHO-TWIN195 : 18.6 mU/ml; in CHO-TWIN1108 : 19.2 mU/ml.
Table 7: Compatibility of the streptogramin- and tetracycline-based gene regulation systems. Crossregulation of pristinamycin (PI) and the tetracyclines doxycycline (DOX) and tetracycline (TET). […]

[2] = tested on: PIT-dependent promoters PPIR, PPIR2, PPIR3; test: SEAP expression from modified PI-responsive promoters (PPIR, PPIR2, PPIR3); type: cell-based, Streptomyces coelicolor
PIT-dependent promoters PPIR, PPIR2, PPIR3, sequence (as listed by the source): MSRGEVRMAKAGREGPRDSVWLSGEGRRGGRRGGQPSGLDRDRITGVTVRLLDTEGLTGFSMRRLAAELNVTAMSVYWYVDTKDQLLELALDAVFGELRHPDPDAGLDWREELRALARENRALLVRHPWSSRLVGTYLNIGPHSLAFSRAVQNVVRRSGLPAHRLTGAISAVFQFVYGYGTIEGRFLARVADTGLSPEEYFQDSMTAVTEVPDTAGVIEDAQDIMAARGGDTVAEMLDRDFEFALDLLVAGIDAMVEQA
From the text: The naturally occurring Pptr sequence contains only three distinct Pip binding sites which could accommodate PIT. In order to enhance maximal expression from streptogramin-responsive system, we constructed PI-responsive promoters with two (PPIR2) and three (PPIR3) ptr binding motifs with a total of 6 and 9 Pip binding sites, respectively.
Both DNA fragments were digested with AatII and Sse8387I (corresponding restriction sites are shown in bold) and ligated to the corresponding sites of pMF172 (PPIR -SEAP; AatII/Sse8387I) thereby replacing the single Pip binding sequence (Pptr of S. pristinaespiralis; Salah-Bey et al., 1995; Salah-Bey and Thompson, 1995) to result in plasmids pMF198 (PPIR2 -SEAP) and pMF199 (PPIR3 -SEAP). […]

pristinamycin I [PI]
Effect on expression from the TET-responsive system [1]: no effect | SEAP Production (%) ([1]; 2 μg/ml): 94.8 ± 5.3% | SEAP Production (%) ([1]; 10 μg/ml, 2880 min): 92.4 ± 7.9% | SEAP expression in the presence of PI ([2]; PPIR2 -SEAP (pMF198)): 0.073 ± 0.004 | SEAP expression in the presence of PI ([2]; PPIR2 -SEAP (pMF199) as printed): 0.09 ± 0.008 | SEAP expression in the presence of PI ([2]; PPIR -SEAP (pMF172)): 0.04 ± 0.019
